Source: ChEMBL document CHEMBL3132769, “Fragment growing to retain or alter the selectivity of anchored kinase hinge-binding fragments” (Medchemcomm, 2014)

Legend:
[1] = molecular target: Serine/threonine-protein kinase PAK 2 (Homo sapiens) (UniProt Q13177); experiment: Inhibition of human truncated PAK2 expressed in Escherichia coli cell assessed as substrate phosphorylation using fluorescence-labelled peptides as substrate at 0.06 uM after 90 mins by microfluidic peptide phosphorylation assay
Chain of Serine/threonine-protein kinase PAK 2 (Homo sapiens) (Q13177 whole entry, the tested form may be a part): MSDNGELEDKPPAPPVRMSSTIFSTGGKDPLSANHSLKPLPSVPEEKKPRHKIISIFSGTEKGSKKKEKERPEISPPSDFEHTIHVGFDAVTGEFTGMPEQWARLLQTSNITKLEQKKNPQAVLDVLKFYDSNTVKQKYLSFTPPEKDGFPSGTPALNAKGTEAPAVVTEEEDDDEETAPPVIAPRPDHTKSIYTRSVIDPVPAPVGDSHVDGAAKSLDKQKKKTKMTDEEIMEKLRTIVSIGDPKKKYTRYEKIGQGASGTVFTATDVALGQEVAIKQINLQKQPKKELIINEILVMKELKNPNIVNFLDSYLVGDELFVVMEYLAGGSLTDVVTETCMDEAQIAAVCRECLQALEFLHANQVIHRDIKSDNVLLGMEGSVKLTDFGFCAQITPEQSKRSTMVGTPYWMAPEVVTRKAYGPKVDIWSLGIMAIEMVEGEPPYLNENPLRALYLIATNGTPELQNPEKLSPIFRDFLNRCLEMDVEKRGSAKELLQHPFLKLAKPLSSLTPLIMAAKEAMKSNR

[2] = molecular target: Protein kinase C beta type (Homo sapiens) (UniProt P05771); experiment: Inhibition of human truncated PKC beta1 expressed in baculovirus assessed as substrate phosphorylation using fluorescence-labelled peptides as substrate at 0.06 uM after 90 mins by microfluidic peptide phosphorylation assay
Chain of Protein kinase C beta type (Homo sapiens) (P05771 2-671 limits assumed): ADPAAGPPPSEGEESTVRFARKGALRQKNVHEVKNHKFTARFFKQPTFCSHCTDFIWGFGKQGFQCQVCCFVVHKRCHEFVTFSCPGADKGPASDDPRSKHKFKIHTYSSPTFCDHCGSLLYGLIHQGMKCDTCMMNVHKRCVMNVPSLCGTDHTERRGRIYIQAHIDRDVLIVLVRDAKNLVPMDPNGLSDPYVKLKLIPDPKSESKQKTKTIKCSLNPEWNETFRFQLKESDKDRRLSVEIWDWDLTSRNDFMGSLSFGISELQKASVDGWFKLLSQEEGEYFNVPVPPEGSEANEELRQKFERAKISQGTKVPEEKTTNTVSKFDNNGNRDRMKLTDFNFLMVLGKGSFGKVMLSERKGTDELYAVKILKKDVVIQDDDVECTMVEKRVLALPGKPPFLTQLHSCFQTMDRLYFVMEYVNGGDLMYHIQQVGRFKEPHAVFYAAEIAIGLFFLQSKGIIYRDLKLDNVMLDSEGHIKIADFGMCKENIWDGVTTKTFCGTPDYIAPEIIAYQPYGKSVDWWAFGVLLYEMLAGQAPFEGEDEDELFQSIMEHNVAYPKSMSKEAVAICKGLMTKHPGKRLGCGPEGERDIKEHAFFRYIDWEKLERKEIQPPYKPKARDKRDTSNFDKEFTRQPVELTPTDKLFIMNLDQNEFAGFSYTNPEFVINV

[3] = test system: Tyrosine-protein kinase ABL1 (Homo sapiens), P00519 [H396P]; experiment: Inhibition of human truncated ABL H396P mutant expressed in baculovirus assessed as substrate phosphorylation using fluorescence-labelled peptides as substrate at 0.06 uM after 90 mins by microfluidic peptide phosphorylation assay
[4] = molecular target: Fibroblast growth factor receptor 3 (Homo sapiens) (UniProt P22607); experiment: Inhibition of human FGFR3 catalytic domain expressed in baculovirus assessed as substrate phosphorylation using fluorescence-labelled peptides as substrate at 0.2 uM after 90 mins by microfluidic peptide phosphorylation assay
Chain of Fibroblast growth factor receptor 3 (Homo sapiens) (P22607 23-806 limits assumed): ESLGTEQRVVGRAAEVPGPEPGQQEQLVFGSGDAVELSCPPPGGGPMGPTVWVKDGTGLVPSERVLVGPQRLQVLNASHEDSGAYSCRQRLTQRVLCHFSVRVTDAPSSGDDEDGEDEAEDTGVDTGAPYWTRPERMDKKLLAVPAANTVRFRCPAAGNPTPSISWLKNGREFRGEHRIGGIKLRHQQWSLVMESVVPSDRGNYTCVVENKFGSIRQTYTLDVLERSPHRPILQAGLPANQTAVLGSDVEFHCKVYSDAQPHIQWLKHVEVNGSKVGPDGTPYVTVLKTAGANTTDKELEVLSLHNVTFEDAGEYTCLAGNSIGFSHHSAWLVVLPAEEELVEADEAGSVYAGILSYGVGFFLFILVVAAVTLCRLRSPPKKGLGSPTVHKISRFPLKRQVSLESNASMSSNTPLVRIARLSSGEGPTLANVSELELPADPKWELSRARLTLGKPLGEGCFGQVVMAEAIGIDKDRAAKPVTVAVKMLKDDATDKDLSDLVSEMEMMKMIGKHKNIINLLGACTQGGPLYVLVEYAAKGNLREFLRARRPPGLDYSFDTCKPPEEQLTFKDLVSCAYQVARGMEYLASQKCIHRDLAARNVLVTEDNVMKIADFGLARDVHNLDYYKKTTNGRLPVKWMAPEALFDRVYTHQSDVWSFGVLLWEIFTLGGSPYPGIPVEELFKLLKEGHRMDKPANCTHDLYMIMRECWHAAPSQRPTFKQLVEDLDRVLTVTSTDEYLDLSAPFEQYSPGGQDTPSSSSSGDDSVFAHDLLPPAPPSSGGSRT

[5] = molecular target: Proto-oncogene tyrosine-protein kinase Src (Homo sapiens) (UniProt P12931); experiment: Inhibition of human full length SRC expressed in baculovirus assessed as substrate phosphorylation using fluorescence-labelled peptides as substrate at 0.2 uM after 90 mins by microfluidic peptide phosphorylation assay
Chain of Proto-oncogene tyrosine-protein kinase Src (Homo sapiens) (P12931 2-536 limits assumed): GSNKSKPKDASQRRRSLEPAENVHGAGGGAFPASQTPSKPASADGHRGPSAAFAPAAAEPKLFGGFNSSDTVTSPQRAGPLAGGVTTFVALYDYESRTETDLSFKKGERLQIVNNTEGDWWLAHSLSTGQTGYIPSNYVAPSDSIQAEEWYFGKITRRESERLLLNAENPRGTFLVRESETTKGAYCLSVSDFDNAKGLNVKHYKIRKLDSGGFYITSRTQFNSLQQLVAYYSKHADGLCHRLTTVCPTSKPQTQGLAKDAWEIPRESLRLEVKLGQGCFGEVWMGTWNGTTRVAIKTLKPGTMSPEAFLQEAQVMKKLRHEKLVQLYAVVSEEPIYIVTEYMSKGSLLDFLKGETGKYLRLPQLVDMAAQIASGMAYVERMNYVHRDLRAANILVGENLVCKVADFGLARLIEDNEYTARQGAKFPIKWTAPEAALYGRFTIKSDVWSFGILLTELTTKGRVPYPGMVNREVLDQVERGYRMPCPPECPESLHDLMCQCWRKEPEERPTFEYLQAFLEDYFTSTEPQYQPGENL

[6] = molecular target: Cyclin-dependent kinase 2 (Homo sapiens) (UniProt P24941); experiment: Inhibition of human full length CDK2 expressed in baculovirus assessed as substrate phosphorylation using fluorescence-labelled peptides as substrate at […] after 90 mins by microfluidic peptide phosphorylation assay
[7] = molecular target: Mitogen-activated protein kinase 14 (Homo sapiens) (UniProt Q16539); experiment: Inhibition of human truncated p38 alpha expressed in Escherichia coli cell assessed as substrate phosphorylation using fluorescence-labelled peptides as substrate at […] after 90 mins by microfluidic peptide phosphorylation assay
[8] = molecular target: Tyrosine-protein kinase ABL2 (Homo sapiens) (UniProt P42684); experiment: Inhibition of human truncated Arg expressed in baculovirus assessed as substrate phosphorylation using fluorescence-labelled peptides as substrate at 9 uM after 90 mins by microfluidic peptide phosphorylation assay
Chain of Tyrosine-protein kinase ABL2 (Homo sapiens) (P42684 whole entry, the tested form may be a part): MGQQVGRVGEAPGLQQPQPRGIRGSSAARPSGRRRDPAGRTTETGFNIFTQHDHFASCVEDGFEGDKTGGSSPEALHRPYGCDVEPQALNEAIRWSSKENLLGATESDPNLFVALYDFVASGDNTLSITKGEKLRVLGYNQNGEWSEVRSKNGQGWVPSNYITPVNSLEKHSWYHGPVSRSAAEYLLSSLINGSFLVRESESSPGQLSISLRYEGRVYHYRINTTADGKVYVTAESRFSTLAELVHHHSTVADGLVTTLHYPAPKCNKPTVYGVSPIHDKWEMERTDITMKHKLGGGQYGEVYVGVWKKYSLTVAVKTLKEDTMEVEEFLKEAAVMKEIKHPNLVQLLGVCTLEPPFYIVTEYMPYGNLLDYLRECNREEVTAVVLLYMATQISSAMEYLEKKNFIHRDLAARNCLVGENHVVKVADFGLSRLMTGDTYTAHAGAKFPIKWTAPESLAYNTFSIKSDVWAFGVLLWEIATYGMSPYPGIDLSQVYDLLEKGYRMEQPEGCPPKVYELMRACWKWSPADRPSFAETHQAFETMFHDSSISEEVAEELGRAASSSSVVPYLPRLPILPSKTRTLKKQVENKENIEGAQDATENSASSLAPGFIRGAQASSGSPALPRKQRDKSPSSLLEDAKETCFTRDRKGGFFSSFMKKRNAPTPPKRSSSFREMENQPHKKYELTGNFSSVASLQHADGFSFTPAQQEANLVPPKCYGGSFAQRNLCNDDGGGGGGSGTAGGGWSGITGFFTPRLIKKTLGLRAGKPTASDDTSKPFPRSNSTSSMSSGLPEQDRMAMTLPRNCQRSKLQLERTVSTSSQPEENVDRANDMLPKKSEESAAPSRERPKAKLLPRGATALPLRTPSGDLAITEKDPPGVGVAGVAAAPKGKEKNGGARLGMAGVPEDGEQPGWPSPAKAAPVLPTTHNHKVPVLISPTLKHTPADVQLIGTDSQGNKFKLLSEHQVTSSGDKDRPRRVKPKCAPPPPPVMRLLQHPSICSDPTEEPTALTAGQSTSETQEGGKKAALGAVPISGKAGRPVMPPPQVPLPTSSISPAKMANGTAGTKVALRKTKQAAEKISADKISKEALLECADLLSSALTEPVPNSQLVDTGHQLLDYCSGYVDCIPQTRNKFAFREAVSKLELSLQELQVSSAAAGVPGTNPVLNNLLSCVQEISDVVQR

[9] = molecular target: T1, Inhibitor of nuclear factor kappa-B kinase subunit beta (Homo sapiens) (UniProt O14920); experiment: Inhibition of human full length IKK beta expressed in baculovirus assessed as substrate phosphorylation using fluorescence-labelled peptides as substrate at 1000 uM after 90 mins by microfluidic peptide phosphorylation assay
T1 sequence (whole entry): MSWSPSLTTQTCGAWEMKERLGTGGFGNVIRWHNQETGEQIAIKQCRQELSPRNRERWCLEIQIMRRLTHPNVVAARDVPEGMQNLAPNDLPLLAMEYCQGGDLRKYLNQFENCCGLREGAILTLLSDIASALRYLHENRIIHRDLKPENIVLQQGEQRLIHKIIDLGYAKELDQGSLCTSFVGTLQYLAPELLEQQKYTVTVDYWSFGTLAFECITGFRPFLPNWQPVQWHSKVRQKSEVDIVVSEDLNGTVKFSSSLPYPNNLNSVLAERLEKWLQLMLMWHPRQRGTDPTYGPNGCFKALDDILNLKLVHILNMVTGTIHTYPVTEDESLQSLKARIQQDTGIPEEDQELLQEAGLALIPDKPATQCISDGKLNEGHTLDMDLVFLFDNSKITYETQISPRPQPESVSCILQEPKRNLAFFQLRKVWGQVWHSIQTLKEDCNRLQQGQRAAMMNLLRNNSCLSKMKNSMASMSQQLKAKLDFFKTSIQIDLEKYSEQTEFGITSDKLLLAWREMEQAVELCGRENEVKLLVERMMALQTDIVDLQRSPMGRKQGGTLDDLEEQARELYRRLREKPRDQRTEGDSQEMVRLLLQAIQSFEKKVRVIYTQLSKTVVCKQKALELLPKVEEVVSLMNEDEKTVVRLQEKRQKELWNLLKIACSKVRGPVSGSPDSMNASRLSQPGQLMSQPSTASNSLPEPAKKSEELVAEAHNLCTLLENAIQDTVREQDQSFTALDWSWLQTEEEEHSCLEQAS

[10] = molecular target: T2, Testis-specific serine/threonine-protein kinase 1 (Homo sapiens) (UniProt Q9BXA7); experiment: Inhibition of human full length TSSK1 expressed in baculovirus assessed as substrate phosphorylation using fluorescence-labelled peptides as substrate at 1000 uM after 90 mins by microfluidic peptide phosphorylation assay
T2 sequence (whole entry): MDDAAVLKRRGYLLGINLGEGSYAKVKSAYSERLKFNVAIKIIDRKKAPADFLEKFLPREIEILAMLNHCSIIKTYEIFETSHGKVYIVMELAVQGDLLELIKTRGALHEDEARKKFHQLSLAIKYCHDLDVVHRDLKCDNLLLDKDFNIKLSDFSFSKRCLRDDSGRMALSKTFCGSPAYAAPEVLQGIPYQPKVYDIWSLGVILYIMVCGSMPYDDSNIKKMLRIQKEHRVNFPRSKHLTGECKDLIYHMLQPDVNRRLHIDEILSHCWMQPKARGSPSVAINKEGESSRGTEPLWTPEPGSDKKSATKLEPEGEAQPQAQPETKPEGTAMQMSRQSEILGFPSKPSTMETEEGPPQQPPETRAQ

[11] = molecular target: Platelet-derived growth factor receptor alpha (Homo sapiens) (UniProt P16234); experiment: Inhibition of human PDGFR alpha catalytic domain expressed in baculovirus assessed as substrate phosphorylation using fluorescence-labelled peptides as substrate at 1000 uM after 90 mins by microfluidic peptide phosphorylation assay
Chain of Platelet-derived growth factor receptor alpha (Homo sapiens) (P16234 whole entry, the tested form may be a part): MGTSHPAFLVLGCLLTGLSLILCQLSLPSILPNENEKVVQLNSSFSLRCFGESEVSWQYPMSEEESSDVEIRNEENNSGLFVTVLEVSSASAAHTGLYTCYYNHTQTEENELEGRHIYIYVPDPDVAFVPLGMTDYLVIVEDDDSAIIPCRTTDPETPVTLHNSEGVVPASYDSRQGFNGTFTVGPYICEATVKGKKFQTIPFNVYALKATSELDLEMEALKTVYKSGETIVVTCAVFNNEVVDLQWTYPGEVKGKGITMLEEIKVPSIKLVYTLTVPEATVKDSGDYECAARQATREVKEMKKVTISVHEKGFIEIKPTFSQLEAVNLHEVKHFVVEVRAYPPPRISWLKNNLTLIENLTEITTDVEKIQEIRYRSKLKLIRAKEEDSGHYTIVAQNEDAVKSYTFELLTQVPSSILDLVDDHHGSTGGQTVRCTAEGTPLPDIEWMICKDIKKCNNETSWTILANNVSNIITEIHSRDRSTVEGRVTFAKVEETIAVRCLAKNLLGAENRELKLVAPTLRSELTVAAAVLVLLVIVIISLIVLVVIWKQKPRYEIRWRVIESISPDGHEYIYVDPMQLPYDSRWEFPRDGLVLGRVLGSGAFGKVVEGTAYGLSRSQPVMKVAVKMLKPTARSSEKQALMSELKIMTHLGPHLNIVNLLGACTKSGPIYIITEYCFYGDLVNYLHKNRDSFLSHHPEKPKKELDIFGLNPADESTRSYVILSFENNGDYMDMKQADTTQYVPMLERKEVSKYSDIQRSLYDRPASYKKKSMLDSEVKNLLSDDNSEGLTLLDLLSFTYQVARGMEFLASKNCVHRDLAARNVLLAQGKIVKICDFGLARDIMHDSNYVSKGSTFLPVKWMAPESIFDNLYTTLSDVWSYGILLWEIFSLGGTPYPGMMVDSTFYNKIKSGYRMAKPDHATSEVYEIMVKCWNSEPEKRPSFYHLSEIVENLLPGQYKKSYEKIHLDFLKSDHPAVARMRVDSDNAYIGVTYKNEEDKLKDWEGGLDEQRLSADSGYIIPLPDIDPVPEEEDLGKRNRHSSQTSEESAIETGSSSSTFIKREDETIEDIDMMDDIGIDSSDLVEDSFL

[12] = molecular target: T3, Protein kinase C zeta type (Homo sapiens) (UniProt Q05513); experiment: Inhibition of human full length PKC zeta expressed in baculovirus assessed as substrate phosphorylation using fluorescence-labelled peptides as substrate at 70 uM after 90 mins by microfluidic peptide phosphorylation assay
T3 sequence (whole entry): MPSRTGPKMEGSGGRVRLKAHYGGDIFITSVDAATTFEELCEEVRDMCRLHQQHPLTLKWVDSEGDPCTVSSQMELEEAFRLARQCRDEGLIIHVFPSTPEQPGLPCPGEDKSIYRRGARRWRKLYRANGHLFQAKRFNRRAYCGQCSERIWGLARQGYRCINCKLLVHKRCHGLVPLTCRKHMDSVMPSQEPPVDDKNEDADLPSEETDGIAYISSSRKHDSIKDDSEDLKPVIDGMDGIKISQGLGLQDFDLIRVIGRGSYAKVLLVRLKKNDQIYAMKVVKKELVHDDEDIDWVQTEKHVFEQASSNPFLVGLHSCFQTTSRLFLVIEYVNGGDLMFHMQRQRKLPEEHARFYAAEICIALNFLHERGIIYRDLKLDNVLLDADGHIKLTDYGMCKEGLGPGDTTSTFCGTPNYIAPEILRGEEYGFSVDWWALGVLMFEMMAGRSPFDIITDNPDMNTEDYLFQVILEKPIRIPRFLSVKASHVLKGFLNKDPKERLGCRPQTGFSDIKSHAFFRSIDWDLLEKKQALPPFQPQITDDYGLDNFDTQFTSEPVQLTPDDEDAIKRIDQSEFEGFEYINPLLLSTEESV

NC1(Cc2ccc(Cl)cc2)CCN(c2ncnc3[nH]ccc23)CC1
inhibition [1]: 1.5% | inhibition [2]: 3.5% | inhibition [3]: 0.5%

Clc1ccc(C2(c3ccc(-c4ncnc5[nH]cnc45)cc3)CCNCC2)cc1
inhibition [4]: 0% | inhibition [5]: 24.5%

COC(=O)c1cnc(Nc2cnc(C#N)cn2)cc1NCC1CCNCC1
inhibition [6]: 6% | inhibition [7]: 2%

NCC1CN(c2ncnc3[nH]c4cnccc4c23)CCO1 (configuration not stated)
inhibition [8]: 6.5%

c1cnc2[nH]ccc2c1
inhibition [9]: 95.5% | inhibition [10]: 52.5% | inhibition [11]: 31.5%

CNCc1ccc(-c2ncnc3[nH]cnc23)cc1
inhibition [12]: 0%
